Results reported in PubChem BioAssay AID1418 (Emory University Molecular Libraries Screening Center, 2008).
pIC50: −log10 of the molar value. Calls of active or inactive are those of the source. No rule for the calls is given here.

Biological target: Induced myeloid leukemia cell differentiation protein Mcl-1 (Homo sapiens) (UniProt Q07820)
Assay: blockers of Bid binding to Mcl-1 – biochemical, TR-FRET, dose response (AID 1418)
Settings: Mcl-1/Bid peptide binding, TR-FRET (europium/Dy647), 2 hr

Sequence of Induced myeloid leukemia cell differentiation protein Mcl-1 (Homo sapiens) (Q07820 whole entry, looked up): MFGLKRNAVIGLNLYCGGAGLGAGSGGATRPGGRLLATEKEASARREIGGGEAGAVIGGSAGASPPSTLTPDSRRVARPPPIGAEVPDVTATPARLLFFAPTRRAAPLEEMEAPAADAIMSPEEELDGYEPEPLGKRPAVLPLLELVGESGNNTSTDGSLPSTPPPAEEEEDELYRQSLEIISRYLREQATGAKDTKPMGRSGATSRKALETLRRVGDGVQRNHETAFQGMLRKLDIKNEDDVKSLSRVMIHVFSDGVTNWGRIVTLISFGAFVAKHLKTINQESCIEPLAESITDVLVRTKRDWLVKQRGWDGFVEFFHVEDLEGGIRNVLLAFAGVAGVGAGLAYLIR

SMILES | IC50 | pIC50
COc1ccc(OC)c(Nc2nc(-c3cccc([N+](=O)[O-])c3)nc3ccccc23)c1 | > 54 µM (inactive) | –
O=c1c2ccccc2sc2nc(C3CCCCC3)n(Cc3ccco3)c(=O)c12 | – | 4.72
CCCC(=O)Nc1nnc(-c2cccc(OCC)c2)s1 | > 54 µM (inactive) | –
CN(C)CC(O)CN(c1ccccc1)c1ccccc1 (configuration not stated) | > 54 µM (inactive) | –
NC(N)=NS(=O)(=O)c1ccc(NC(=S)NC(=O)c2sc3ccccc3c2Cl)cc1 | – | 5.98
Cc1cc(O)ccc1N/C=C(\C#N)c1nc2ccccc2o1 | > 54 µM (inactive) | –
CCCc1nc2oc3cc(OC)ccc3c(=O)c2c(=O)n1CCc1ccccc1 | > 54 µM (inactive) | –
COc1ccc(-c2cc3nc4ccccc4n3c(N)c2C#N)cc1 | – | 5.56
CCc1nnc(NS(=O)(=O)c2ccc(NC(=S)NC(=O)/C=C/c3ccc(C(C)C)cc3)cc2)s1 | – | 5.40
COC(=O)c1ccc(NC(=O)c2ccccc2N(C)S(=O)(=O)c2ccccc2)cc1 | > 54 µM (inactive) | –
C=CCn1c(O)c(C(C)=NCC2CCCO2)c(=O)[nH]c1=O (configuration not stated) | – | 6.32
Cn1c2c(c(=O)n(C)c1=O)C1c3cc(Cl)ccc3OCC1CO2 (configuration not stated) | > 54 µM (inactive) | –
Cc1ccc(-c2nc(CS(=O)CC(=O)N3CCC4(CC3)OCCO4)c(C)o2)cc1 (configuration not stated) | > 54 µM (inactive) | –
COc1ccc(Nc2ncc(C(=O)N3CCN(c4ccc(F)cc4)CC3)c3ccccc23)cc1 | > 54 µM (inactive) | –
Cc1ccc(-c2nnc(N3CC(C)OC(C)C3)c3ccccc23)cc1 (configuration not stated) | > 54 µM (inactive) | –
CCCCSc1cc(C)nc(N)n1 | > 54 µM (inactive) | –
COc1cc(CNc2ccc(O)cc2)cc(Br)c1OCc1ccccc1F | > 54 µM (inactive) | –
COC(=O)c1c(C)[nH]c(C(=O)C(C)[N+]23CCN(CC2)CC3)c1C (configuration not stated) | – | 5.55
O=C(CN1C(=O)NC2(CCc3ccccc3C2)C1=O)Nc1ccc(F)cc1 (configuration not stated) | > 54 µM (inactive) | –
O=c1/c(=C\c2cc([N+](=O)[O-])cc([N+](=O)[O-])c2O)sc2nc3ccccc3n12 | – | 5.97
CCOC(=O)Cc1csc(NC(=O)CSc2nnnn2-c2ccc(C)c(C)c2)n1 | > 54 µM (inactive) | –
O=c1n(S(=O)(=O)c2cccc3cccnc23)c2ccccc2n1S(=O)(=O)c1cccc2cccnc12 | > 54 µM (inactive) | –
O=c1c(CN2CCN(Cc3ccccc3)CC2)coc2ccc(Cl)cc12 | > 54 µM (inactive) | –
O=C(N/N=C/c1ccc(-c2ccc(Cl)c(C(=O)O)c2)o1)c1cc2c(ccc3ccccc32)o1 | – | 5.09
COc1ccc(CCNC(=O)c2ccc(CNS(=O)(=O)c3ccc(C(C)(C)C)cc3)cc2)cc1OC | > 54 µM (inactive) | –

SMILES | IC50 | pIC50
O=C(CP(=O)(c1ccccc1)c1ccccc1)Nc1nc2ccc(Cl)cc2s1 | > 54 µM (inactive) | –
CCc1cc(C(c2ccc(F)cc2)N2CCOCC2)c(NC(=O)c2ccccc2)s1 (configuration not stated) | > 54 µM (inactive) | –
COc1cc(/C=C2/SC(=S)N(CC3CCCO3)C2=O)ccc1O (configuration not stated) | > 54 µM (inactive) | –
C=CS(=O)(=O)c1sc(Cl)c(N2CCOCC2)c1[N+](=O)[O-] | – | 5.75
CCSC1=NC2(CCCCC2)Nc2sc3c(c21)CCCC3 | – | 6.36
COc1cc2c(cc1OC)-c1cc(NCc3ccccn3)nc(=O)n1CC2 | – | 6.26
Nc1c(C(=O)NCC2CCCO2)sc2nc3c(c(-c4ccco4)c12)CC/C3=C\c1ccco1 (configuration not stated) | > 54 µM (inactive) | –
COc1cccc(C(=O)Nc2ccc3c(c2)C(=O)c2ccccc2C3=O)c1 | – | 5.55
CC1=C(SCCC#N)S/C(=C2\SC(C)=C(SCCC#N)S2)S1 | – | 5.55
CCN1C(=O)c2cccc3c(NC(=O)C4CCCCC4)ccc1c23 | > 54 µM (inactive) | –
COc1cccc(NC(=O)C(=O)N/N=C/c2cc(C)n(-c3ccc(Cl)c(Cl)c3)c2C)c1 | > 54 µM (inactive) | –
C=CCn1c(O)c(N=NC(=O)CNC(=O)/C=C/c2ccc(OC)cc2)c2ccccc21 | > 54 µM (inactive) | –
O=C(COc1ccccc1)N1CCN(Cc2c[nH]c3ccccc23)CC1 | > 54 µM (inactive) | –
COCC(O)CSc1nc(C)[nH]c1[N+](=O)[O-] (configuration not stated) | > 54 µM (inactive) | –
COc1ccc(-c2cc(C(F)(F)F)nc(N3CCOCC3)n2)cc1OC | > 54 µM (inactive) | –
CC(C)[C@H](NC(=O)NCCC1=CCCCC1)C(=O)O | > 54 µM (inactive) | –
CCOC(=O)NC(=O)/C(C#N)=C/c1ccc(N(C)C)cc1 | > 54 µM (inactive) | –
COc1ccccc1NC(=O)CSc1nnnn1-c1ccc2c(c1)OCO2 | > 54 µM (inactive) | –
C=CCn1cc(C(=O)NCc2ccco2)c(=O)c2cc(S(=O)(=O)N3CCCCCC3)ccc21 | > 54 µM (inactive) | –
CCCCN(Cc1cc2ccccc2[nH]c1=O)S(C)(=O)=O | > 54 µM (inactive) | –
CNC(=O)CC1C(=O)N(c2ccc(OC)cc2)C(=S)N1NC(=O)c1cccc(F)c1 (configuration not stated) | > 54 µM (inactive) | –
COc1cccc(-n2c(SCc3ccccn3)nc3c(c2=O)SCC3)c1 | > 54 µM (inactive) | –
O=C(NCCc1csc(-c2cccnc2)n1)c1cccs1 | > 54 µM (inactive) | –
O=[N+]([O-])/C(C(Cl)=C(Cl)Cl)=C(\Nc1ccc(F)cc1)n1cncn1 | – | 4.76
O=[N+]([O-])c1ccc(/C=N/NC(=S)Nc2ccc(Cl)cc2Cl)s1 | – | 5.83

SMILES | IC50 | pIC50
COC(=O)c1cccc(OCC(O)Cn2ccnc2)c1 (configuration not stated) | > 54 µM (inactive) | –
COC(=O)c1ccc(COC(=O)c2ccc(CS(=O)(=O)c3ccc(C)cc3)cc2)cc1 | – | 5.89
O=C(NCc1cccnc1)c1cc2nc(-c3ccc4c(c3)OCO4)cc(C(F)(F)F)n2n1 | > 54 µM (inactive) | –
COc1ccc(OC)c(NC(=S)N(CCc2c(C)[nH]c3ccc(C)cc23)Cc2cccs2)c1 | > 54 µM (inactive) | –
COc1cccc(CNc2nc3ccc(C)cc3n3cnnc23)c1 | > 54 µM (inactive) | –
CCOC(=O)N1CCN(C(=O)CSc2ccc3nnc(CCNC(=O)c4ccc(OC)cc4)n3n2)CC1 | > 54 µM (inactive) | –
O=c1c2cnn(-c3ccccc3)c2nc(-c2cccs2)n1-c1cccc(Cl)c1 | > 54 µM (inactive) | –
COc1cccc(C(=O)N2CCN(Cc3ccccn3)CC2)c1OC | > 54 µM (inactive) | –
Cc1cc(N2CC(C)OC(C)C2)n2cc(-c3ccccc3)nc2n1 (configuration not stated) | > 54 µM (inactive) | –
O=C(CSc1cccc[n+]1[O-])Nc1cc2c(cc1Cl)C(=O)c1ccccc1C2=O | – | 5.03
Cc1ccc(-n2c(=O)c3cc4c(=O)n(-c5ccc(C)c(C)c5)c(=O)c4c(C(=O)c4ccc(C(=O)O)cc4)c3c2=O)cc1C | – | 5.16
Cc1sc(NC(=O)c2ccccc2)c(C(=O)N2CCN(C)CC2)c1C | > 54 µM (inactive) | –
C[N+](C)(C)c1ccc(/C=N/Nc2nc(Cl)c(C#N)c(Cl)c2Cl)cc1 | > 54 µM (inactive) | –
CCOc1cc(/C=C2\C(=O)N(c3nc(-c4ccc(Br)cc4)cs3)N=C2c2ccccc2)ccc1O | – | 6.12
COc1ccc(NC(=O)c2[nH]ncc2[N+](=O)[O-])cc1 | > 54 µM (inactive) | –
COc1cccc(NC(=O)C2c3cc(OC)c(OC)cc3C(=O)N(C)C2c2cccnc2)c1 (configuration not stated) | > 54 µM (inactive) | –
CCN(CC)c1ccc(NC(=O)Cn2c(C(C)NC(=O)c3ccc(C)cc3)nc3ccccc32)cc1 (configuration not stated) | – | 6.05
COc1cc(OC)cc(C(=O)Nc2ccc(-c3nc4ccccc4o3)c(O)c2)c1 | – | 5.44
CC(C)(C)CC(C)(C)NC(=S)NC1CCN(Cc2ccccc2)CC1 | > 54 µM (inactive) | –
NS(=O)(=O)c1cc2c(cc1Cl)NC(Cc1ccccc1)NS2(=O)=O (configuration not stated) | > 54 µM (inactive) | –
CC(=O)C1=C(C)NC(SCC(N)=O)=C(C#N)C1c1cccnc1 (configuration not stated) | > 54 µM (inactive) | –
Cc1cc(N)n(-c2ccc3ccccc3c2)n1 | > 54 µM (inactive) | –
O=C(NCc1ccco1)c1cccn2c(=O)c3cc4ccccc4cc3nc12 | – | 6.28
Cc1cc(-c2nc3c4c5c(sc4[nH]c(=O)n3n2)CCC5)c(C)o1 | > 54 µM (inactive) | –
COc1cccc(/C=N/NC(=O)c2cc3cc([N+](=O)[O-])ccc3s2)c1O | – | 5.80

SMILES | IC50 | pIC50
COc1cccc2c1c(NC(=O)Nc1ccc(F)cc1F)nn2C | > 54 µM (inactive) | –
O=C(NNC(=O)c1ccccc1Cl)c1ccccc1Cl | > 54 µM (inactive) | –
CC(C)N1C(=O)/C(=C/c2nc3ccccc3c(=O)n2-c2ccccc2)c2ccccc21 | – | 6.00
COc1cccc2c(=O)c(C/C=C(/C)Cl)c(C)[nH]c12 | > 54 µM (inactive) | –
O=C1NC(=S)N/C1=C/c1ccc(-c2c(Br)cc([N+](=O)[O-])cc2Br)o1 | – | 5.80
CC1(C)CC(=O)C2=C(C1)OC(N)=C(C#N)C2c1cccc(OC(=O)c2ccco2)c1 (configuration not stated) | > 54 µM (inactive) | –
O=C(COc1cccc2c1CCN(Cc1ccc(Br)cc1)C2=O)NCc1ccco1 | > 54 µM (inactive) | –
COc1cccc(OC)c1C(=O)Nc1ccccc1C(=O)N1CCOCC1 | > 54 µM (inactive) | –
O=S(=O)(c1ccccc1)N1CCN(Cc2ccccc2C(F)(F)F)CC1 | > 54 µM (inactive) | –
COc1ccccc1C1C(C#N)=C(N)Oc2c1c(-c1ccccc1)nn2-c1ccccc1 (configuration not stated) | > 54 µM (inactive) | –
CN(C1=NC(=O)CS1)c1ccc(O)cc1 | > 54 µM (inactive) | –
O=C(N/N=C/c1cccc([N+](=O)[O-])c1)c1cc2c(ccc3ccccc32)o1 | – | 5.79
CCN(CC)S(=O)(=O)c1ccc(NC(=O)Nc2cccc(C(F)(F)F)c2)cc1 | > 54 µM (inactive) | –
COc1cc2c(cc1OC)-c1cc(NC3CCCCCCC3)nc(=O)n1CC2 | > 54 µM (inactive) | –
CN1CCN(C(=S)c2cn(Cc3ccccc3F)c3ccccc23)CC1 | > 54 µM (inactive) | –
Cc1ccc(Nc2cc(=O)n(C3CCCCC3)c(=O)[nH]2)cc1C | > 54 µM (inactive) | –
CCCN(CCC)C(C(=O)Nc1cccc(OC)c1)c1ccccc1 (configuration not stated) | > 54 µM (inactive) | –
Cc1nn(-c2ccccc2C(=O)O)c(=O)c2ccccc12 | > 54 µM (inactive) | –
CC1(C)CC(=O)C(C(c2cccnc2)C2C(=O)CC(C)(C)CC2=O)C(=O)C1 | > 54 µM (inactive) | –
O=C(COC(=O)CCS(=O)(=O)c1ccc(Cl)cc1)Nc1ncc(Cl)cc1Cl | > 54 µM (inactive) | –
NS(=O)(=O)c1ccc(N/N=C/c2ccc(O)c(O)c2O)c([N+](=O)[O-])c1 | – | 5.50
CCOC(=O)C1CCCN(c2c(N3CCN(c4cccc(Cl)c4)CC3)c(=O)c2=O)C1 (configuration not stated) | > 54 µM (inactive) | –
